Calls of active or inactive are those of the source. The rule behind the calls is not given here.
Tests used:
[1] = molecular target: Sodium channel protein type 5 subunit alpha (Homo sapiens, UniProt Q14524); experiment: Inhibition of human Nav1.5 channel at <5 uM by electrophysiology
[2] = molecular target: Acetylcholine receptor subunit alpha (Homo sapiens) (UniProt P02708); experiment: Inhibition of human alpha1 nACHR assessed as change in intracellular calcium level at <5 uM by fluorescence assay; assay type: cell-based
[3] = molecular target: Voltage-dependent L-type calcium channel subunit alpha-1C (Homo sapiens, UniProt Q13936); experiment: Inhibition of human Cav1.2 channel at <5 uM by electrophysiology
[4] = Lipophilicity, logD of the compound at pH 7.4; assay type: physicochemical; conditions: buffer
[5] = Permeability of the compound by PAMPA; assay type: ADME; conditions: read-out: permeability
[6] = molecular target: Glutamate receptor ionotropic, NMDA 2B (Homo sapiens) (UniProt Q13224); experiment: Antagonist activity at human NMDA 2B receptor assessed as change in intracellular calcium level at <5 uM by fluorescence assay; assay type: cell-based
Sequence of Glutamate receptor ionotropic, NMDA 2B (Homo sapiens) (Q13224 27-1484 limits assumed): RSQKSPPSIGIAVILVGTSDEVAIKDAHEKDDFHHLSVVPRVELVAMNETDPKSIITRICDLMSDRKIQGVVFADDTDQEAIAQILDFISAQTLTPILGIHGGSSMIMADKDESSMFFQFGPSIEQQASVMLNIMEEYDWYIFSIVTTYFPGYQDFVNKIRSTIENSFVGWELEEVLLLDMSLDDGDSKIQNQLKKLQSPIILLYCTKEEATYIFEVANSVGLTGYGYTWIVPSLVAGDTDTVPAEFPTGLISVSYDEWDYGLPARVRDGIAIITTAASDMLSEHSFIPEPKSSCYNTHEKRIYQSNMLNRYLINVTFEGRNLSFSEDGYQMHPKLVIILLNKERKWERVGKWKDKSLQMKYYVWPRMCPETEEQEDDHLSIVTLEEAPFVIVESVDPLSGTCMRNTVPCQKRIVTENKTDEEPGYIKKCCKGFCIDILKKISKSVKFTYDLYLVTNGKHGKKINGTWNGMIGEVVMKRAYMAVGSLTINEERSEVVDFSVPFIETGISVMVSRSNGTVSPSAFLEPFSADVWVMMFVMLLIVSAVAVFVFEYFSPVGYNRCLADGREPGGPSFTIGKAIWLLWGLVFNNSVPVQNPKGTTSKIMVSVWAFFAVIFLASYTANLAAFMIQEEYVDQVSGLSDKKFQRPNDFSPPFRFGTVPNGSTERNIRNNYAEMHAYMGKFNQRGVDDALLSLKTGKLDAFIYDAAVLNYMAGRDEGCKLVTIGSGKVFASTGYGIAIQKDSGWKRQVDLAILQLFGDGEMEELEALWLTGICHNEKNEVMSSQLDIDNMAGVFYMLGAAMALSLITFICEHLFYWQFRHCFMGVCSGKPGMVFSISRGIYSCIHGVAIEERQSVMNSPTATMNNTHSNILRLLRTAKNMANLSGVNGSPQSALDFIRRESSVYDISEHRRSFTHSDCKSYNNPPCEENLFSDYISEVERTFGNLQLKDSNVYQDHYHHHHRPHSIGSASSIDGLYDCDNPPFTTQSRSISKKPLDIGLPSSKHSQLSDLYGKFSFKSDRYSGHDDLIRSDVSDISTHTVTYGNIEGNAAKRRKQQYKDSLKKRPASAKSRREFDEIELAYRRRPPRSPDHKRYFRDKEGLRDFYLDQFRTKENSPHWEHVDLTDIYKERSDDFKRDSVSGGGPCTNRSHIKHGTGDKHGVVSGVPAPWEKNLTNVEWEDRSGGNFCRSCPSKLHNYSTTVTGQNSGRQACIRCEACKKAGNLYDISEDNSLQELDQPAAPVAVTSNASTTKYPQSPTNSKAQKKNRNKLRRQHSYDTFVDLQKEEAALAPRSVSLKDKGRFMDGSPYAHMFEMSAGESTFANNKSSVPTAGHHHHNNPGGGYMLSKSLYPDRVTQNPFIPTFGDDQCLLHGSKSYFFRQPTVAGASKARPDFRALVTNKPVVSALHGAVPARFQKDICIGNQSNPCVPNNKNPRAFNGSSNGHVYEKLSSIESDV

Homo sapiens = organism: Homo sapiens; experiment: Antagonist activity at human GABA-A receptor at <5 uM by electrophysiology
[7] = molecular target: Adenosine receptor A2a (Homo sapiens) (UniProt P29274); experiment: Agonist activity at human Adenosine A2a receptor at <5 uM by TR-FRET assay
[8] = molecular target: Beta-2 adrenergic receptor (Homo sapiens) (UniProt P07550); experiment: Antagonist activity at human beta-2 adrenergic receptor at <5 uM by TR-FRET assay
[9] = molecular target: D(1A) dopamine receptor (Homo sapiens) (UniProt P21728); experiment: Antagonist activity at human D1 dopamine receptor at <5 uM by TR-FRET assay
[10] = molecular target: Histamine H1 receptor (Homo sapiens) (UniProt P35367); experiment: Antagonist activity at human histamine H1 receptor assessed as change in intracellular calcium level at <5 uM by fluorescence assay; assay type: functional, cell-based
Sequence of Histamine H1 receptor (Homo sapiens) (P35367 whole entry): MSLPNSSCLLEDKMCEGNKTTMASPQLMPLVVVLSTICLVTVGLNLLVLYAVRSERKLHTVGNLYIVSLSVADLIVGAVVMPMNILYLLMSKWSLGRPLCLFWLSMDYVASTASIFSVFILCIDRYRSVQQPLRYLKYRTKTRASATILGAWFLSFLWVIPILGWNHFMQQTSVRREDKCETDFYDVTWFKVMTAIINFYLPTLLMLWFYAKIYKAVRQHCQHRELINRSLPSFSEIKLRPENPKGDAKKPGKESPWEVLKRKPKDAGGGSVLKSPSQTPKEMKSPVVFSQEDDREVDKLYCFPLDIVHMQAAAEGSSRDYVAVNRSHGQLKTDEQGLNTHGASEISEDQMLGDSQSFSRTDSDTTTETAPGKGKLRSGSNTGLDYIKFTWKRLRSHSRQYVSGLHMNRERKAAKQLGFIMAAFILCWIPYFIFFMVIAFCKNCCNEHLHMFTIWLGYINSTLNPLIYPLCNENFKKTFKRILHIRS

[11] = molecular target: Muscarinic acetylcholine receptor M1 (Homo sapiens) (UniProt P11229); experiment: Agonist activity at human muscarinic 1 receptor assessed as change in intracellular calcium level at <5 uM by fluorescence assay; assay type: functional, cell-based
Sequence of Muscarinic acetylcholine receptor M1 (Homo sapiens) (P11229 whole entry): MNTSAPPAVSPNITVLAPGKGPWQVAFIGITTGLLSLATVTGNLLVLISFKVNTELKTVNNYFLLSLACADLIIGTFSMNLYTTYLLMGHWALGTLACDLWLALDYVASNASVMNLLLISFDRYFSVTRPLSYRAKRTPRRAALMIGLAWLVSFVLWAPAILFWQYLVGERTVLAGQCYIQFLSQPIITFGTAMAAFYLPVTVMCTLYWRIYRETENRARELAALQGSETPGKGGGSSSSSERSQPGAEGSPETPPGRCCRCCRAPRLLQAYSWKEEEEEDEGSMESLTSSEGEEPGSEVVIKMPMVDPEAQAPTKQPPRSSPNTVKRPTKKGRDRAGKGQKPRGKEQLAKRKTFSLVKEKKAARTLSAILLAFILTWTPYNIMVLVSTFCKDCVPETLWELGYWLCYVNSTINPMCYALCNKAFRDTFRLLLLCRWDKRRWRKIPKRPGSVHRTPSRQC

[12] = molecular target: Muscarinic acetylcholine receptor M2 (Homo sapiens) (UniProt P08172); experiment: Agonist activity at human muscarinic 2 receptor assessed as change in intracellular calcium level at <5 uM by fluorescence assay; assay type: functional, cell-based
[13] = molecular target: Mu-type opioid receptor (Homo sapiens) (UniProt P35372); experiment: Agonist activity at human mu opiod receptor at <5 uM by scintillation proximity assay
[14] = molecular target: Vasopressin V1a receptor (Homo sapiens) (UniProt P37288); experiment: Antagonist activity at human vasopressin V1a receptor assessed as change in intracellular calcium level at <5 uM by fluorescence assay; assay type: functional, cell-based
[15] = molecular target: Cannabinoid receptor 2 (Homo sapiens) (UniProt P34972); experiment: Agonist activity at human CB2 receptor at <5 uM by Yeast FDLu assay
[16] = molecular target: 5-hydroxytryptamine receptor 1B (Homo sapiens) (UniProt P28222); experiment: Agonist activity at human 5HT1B receptor at <5 uM by scintillation proximity assay
[17] = molecular target: 5-hydroxytryptamine receptor 2A (Homo sapiens) (UniProt P28223); experiment: Antagonist activity at human 5HT2A receptor assessed as change in intracellular calcium level at <5 uM by fluorescence assay; assay type: functional, cell-based
Sequence of 5-hydroxytryptamine receptor 2A (Homo sapiens) (P28223 whole entry): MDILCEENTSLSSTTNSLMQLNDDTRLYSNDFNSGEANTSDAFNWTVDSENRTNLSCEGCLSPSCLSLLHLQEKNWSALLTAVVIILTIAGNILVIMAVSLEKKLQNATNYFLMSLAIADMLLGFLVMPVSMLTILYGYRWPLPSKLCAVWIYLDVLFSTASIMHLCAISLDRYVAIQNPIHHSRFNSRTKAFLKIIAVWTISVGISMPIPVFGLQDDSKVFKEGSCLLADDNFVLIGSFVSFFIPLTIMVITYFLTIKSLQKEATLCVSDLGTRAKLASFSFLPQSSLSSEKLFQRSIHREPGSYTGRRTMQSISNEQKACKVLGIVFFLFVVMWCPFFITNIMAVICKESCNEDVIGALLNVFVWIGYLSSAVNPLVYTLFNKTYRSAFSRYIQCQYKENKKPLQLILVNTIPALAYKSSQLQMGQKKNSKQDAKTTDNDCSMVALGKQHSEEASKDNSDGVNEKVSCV

[18] = molecular target: 5-hydroxytryptamine receptor 2C (Homo sapiens) (UniProt P28335); experiment: Antagonist activity at human 5HT2C receptor assessed as change in intracellular calcium level at <5 uM by fluorescence assay; assay type: functional, cell-based
[19] = molecular target: 3',5'-cyclic-AMP phosphodiesterase 4B (Homo sapiens) (UniProt Q07343); experiment: Inhibition of human PDE4B at <5 uM by luminescence assay
[20] = molecular target: Acetylcholinesterase (Homo sapiens) (UniProt P22303); experiment: Inhibition of human acetylcholinesterase at <5 uM by mass spectrometry
[21] = molecular target: Tyrosine-protein kinase Lck (Homo sapiens) (UniProt P06239); experiment: Inhibition of human LCK at <5 uM by IMAP assay
[22] = molecular target: T1, Bromodomain-containing protein 9 (Homo sapiens) (UniProt Q9H8M2); conditions: Kasumi 1, 10 uM
T1 sequence (whole entry): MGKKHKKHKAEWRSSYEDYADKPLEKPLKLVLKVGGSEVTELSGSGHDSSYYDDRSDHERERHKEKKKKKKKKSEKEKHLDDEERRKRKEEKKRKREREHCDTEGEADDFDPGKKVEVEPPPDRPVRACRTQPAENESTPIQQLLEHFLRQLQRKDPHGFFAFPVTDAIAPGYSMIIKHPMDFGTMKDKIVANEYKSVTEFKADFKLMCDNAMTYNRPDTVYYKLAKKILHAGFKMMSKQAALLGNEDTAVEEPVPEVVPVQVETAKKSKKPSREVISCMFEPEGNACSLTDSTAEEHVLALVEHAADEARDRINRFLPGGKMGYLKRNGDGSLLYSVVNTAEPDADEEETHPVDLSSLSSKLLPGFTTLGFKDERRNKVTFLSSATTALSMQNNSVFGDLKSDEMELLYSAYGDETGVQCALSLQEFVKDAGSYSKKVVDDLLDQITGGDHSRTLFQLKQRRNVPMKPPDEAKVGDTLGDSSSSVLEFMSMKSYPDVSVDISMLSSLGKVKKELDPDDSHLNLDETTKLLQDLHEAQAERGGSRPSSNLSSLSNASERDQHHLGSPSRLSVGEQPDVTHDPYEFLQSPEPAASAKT
Description: Inhibition of BRD9 in human Kasumi-1 cells assessed as downregulation of FES gene at 10 uM after 6 hrs by qPCR method

[23] = molecular target: T1, Bromodomain-containing protein 9 (Homo sapiens); conditions: Kasumi 1, 10 uM; remark: listed apart in the source
Description: Inhibition of BRD9 in human Kasumi-1 cells assessed as downregulation of SAMSN1 gene at 10 uM after 6 hrs by qPCR method

[24] = molecular target: T1, Bromodomain-containing protein 9 (Homo sapiens); conditions: Kasumi 1, 10 uM; remark: listed apart in the source
Description: Inhibition of BRD9 in human Kasumi-1 cells assessed as downregulation of CLEC1 gene at 10 uM after 6 hrs by qPCR method

Sequence of Sodium channel protein type 5 subunit alpha (Q14524 whole entry): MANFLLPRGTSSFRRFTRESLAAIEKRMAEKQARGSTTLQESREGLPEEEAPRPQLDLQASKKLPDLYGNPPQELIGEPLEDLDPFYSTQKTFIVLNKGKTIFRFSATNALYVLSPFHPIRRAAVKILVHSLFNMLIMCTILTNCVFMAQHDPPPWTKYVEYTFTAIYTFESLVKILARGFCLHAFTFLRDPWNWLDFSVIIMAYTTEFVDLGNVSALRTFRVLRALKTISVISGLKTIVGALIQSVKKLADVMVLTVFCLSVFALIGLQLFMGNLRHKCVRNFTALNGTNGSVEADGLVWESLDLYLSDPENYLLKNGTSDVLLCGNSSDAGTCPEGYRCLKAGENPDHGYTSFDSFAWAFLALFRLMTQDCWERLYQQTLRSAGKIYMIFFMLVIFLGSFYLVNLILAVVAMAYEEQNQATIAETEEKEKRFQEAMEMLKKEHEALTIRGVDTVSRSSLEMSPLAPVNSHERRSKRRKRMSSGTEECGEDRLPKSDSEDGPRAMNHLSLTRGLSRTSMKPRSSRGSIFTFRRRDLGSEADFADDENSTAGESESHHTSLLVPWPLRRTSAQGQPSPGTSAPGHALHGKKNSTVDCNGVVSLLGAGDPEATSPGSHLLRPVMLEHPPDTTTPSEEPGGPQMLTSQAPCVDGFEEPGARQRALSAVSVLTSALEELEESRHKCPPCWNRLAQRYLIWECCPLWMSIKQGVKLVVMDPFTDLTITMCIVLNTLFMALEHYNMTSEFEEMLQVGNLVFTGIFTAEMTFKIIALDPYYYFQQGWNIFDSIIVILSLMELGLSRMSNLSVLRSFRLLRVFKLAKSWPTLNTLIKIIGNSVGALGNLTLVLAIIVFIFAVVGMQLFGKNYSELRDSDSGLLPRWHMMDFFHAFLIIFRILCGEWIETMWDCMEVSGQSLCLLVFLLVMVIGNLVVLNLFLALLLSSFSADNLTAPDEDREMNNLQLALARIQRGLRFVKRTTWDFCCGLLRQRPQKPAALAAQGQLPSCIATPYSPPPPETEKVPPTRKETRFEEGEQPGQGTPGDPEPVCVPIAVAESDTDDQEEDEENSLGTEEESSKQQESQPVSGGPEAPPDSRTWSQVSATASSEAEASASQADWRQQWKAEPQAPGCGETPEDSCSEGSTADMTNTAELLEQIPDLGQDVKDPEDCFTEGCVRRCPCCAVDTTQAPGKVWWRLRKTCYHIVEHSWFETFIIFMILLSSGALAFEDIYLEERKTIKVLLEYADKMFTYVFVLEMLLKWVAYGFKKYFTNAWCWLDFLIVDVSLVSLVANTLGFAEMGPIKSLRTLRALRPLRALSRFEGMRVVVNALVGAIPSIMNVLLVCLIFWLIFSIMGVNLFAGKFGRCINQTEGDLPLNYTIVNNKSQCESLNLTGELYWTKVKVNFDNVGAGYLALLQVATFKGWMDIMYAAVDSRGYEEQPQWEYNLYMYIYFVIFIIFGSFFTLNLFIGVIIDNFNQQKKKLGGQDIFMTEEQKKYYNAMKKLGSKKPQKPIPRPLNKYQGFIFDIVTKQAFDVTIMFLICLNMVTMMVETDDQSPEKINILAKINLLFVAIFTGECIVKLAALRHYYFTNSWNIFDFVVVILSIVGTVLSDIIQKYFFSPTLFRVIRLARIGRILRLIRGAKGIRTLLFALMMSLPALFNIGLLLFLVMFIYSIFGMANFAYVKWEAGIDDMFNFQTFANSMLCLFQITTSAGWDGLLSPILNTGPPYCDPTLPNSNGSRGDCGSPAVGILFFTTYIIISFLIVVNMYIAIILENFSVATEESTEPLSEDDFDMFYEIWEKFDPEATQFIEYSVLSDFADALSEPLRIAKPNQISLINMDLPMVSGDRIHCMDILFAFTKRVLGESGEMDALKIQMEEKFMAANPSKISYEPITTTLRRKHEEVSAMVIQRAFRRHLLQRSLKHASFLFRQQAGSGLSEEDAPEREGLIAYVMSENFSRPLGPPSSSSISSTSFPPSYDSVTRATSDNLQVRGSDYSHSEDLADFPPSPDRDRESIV

CCn1cc(-c2cccc(C(F)(F)F)c2)c2sc(C(=N)NC3CCS(=O)(=O)CC3)cc2c1=O
inhibition (INH) [1]: Not Active
inhibition [2]: inactive
inhibition (INH) [3]: Not Active
logD [4]: 3.7
Papp [5]: 21 ×10⁻⁶ cm/s
inhibition [6]: inactive
inhibition (Homo sapiens): inactive
Activity [7]: inactive
inhibition [8]: inactive
inhibition [9]: inactive
inhibition [10]: inactive
Activity [11]: inactive
Activity [12]: inactive
Activity [13]: inactive
inhibition [14]: inactive
Activity [15]: inactive
Activity [16]: inactive
inhibition [17]: inactive
inhibition [18]: inactive
inhibition [19]: inactive
inhibition [20]: inactive
inhibition [21]: inactive
inhibition [22]: Active
inhibition [23]: Active
inhibition [24]: Active

— ChEMBL document CHEMBL3769376, “Discovery of I-BRD9, a Selective Cell Active Chemical Probe for Bromodomain Containing Protein 9 Inhibition” (J Med Chem, 2016)
